Entries after “also recorded” stand apart in the source; their conditions may differ.
Test system: dopaminergic neurons
Assay: Drug screening on Parkinson's disease-like basal ganglia-on-a-chip model (6-OHDA induced)
Format: cell-based
Details: 50 μM L-dopa after Parkinson's disease-like model established with 100 μM 6-OHDA
Excerpt: In order to fabricate a basal ganglia-on-a-chip, SH-SY5Y (ATCC CRL-2266) was used as dopaminergic neurons, and F3-NG1 (provided from professor Hong-Joon Lee at Chung-Ang University) were allowed to differentiate and then used as GABAergic neurons and glutamatergic neurons. Parkinson's disease is caused by the gradual loss of dopaminergic neurons distributed in the substantia nigra. 6-Hydroxydopamine (6-OHDA) causes oxidative stress to induce mitochondrial migration of c-Jun N-terminal kinase (JNK), and the activated JNK after mitochondrial migration causes mitochondrial dysfunction, contributing to apoptosis of dopaminergic neurons, occurring in Parkinson's disease. Based on this, a Parkinson's disease model was developed using 100 μM 6-OHDA.

## N[C@@H](Cc1ccc(O)c(O)c1)C(=O)O [L-dopa, L-3,4-dihydroxyphenylalanine]
  proliferation of dopaminergic neurons: increase in the proliferation of dopaminergic neurons; also recorded: proliferation of dopaminergic neurons was confirmed

From patent publication US11959909B2, “Basal ganglia-on-chip for screening therapeutic agents for brain and nervous system diseases” (priority 2018, dated 2024)
